Tests used:
[1] = target: T1, wild-type BSEP (Homo sapiens, UniProt O95342, L339V); assay: Cell surface biotinylation method, expression on the surface of MDCKII cells; assay type: cell-based; conditions: 1 mM, 24 hours, FIG. 9 cell surface fraction
T1 construct: expressed in transfected cells; host or cells: MDCKII cells infected with recombinant adenovirus
Procedure: MDCKII cells were dispersed on a 6-well plate, resulting in a density of 2.5×10^5 cells/well. After completion of the culture for 24 hours, the confluent cells were infected with recombinant adenoviruses having the cDNAs of wild-type, E297G and D482G BSEPs, and GFP, at 200 MOI. After completion of the infection, the cells were cultured for 24 hours. […] After completion of the treatment for 24 hours, the cells were biotinylated (see Hayashi et al., Hepatology, 41: 916-924, 2005).

[2] = target: T1, wild-type BSEP; assay: Transcellular transport assay of [^3H] TC across MDCKII monolayer; assay type: cell-based; conditions: other carboxylic acids, 1 mM, 24 hours; FIG. 10
Procedure: MDCKII cells were dispersed on a Transwell membrane insert (pore size: […]; Falcon) of a 24-well plate, resulting in a density of 1.5×10^5 cells/insert. Two days after the culture, the confluent cells were infected with recombinant adenoviruses having the cDNAs of wild-type, E297G and D482G BSEPs, and GFP, at 50 MOI. […] After completion of the treatment for 24 hours, a transcellular transport assay was carried out (see Mita et al., Am J Physiol Gastrointest Liver Physiol 290: G550-G556, 2006).
The apparent efflux clearance across the apical membrane (PSapical) was calculated by dividing a steady rate of the transcellular transport of [^3H] TC for 2 hours by the intracellular concentration of the [^3H] TC at the termination of the experiment (2 hours later).

T1 sequence (O95342 whole entry L339V): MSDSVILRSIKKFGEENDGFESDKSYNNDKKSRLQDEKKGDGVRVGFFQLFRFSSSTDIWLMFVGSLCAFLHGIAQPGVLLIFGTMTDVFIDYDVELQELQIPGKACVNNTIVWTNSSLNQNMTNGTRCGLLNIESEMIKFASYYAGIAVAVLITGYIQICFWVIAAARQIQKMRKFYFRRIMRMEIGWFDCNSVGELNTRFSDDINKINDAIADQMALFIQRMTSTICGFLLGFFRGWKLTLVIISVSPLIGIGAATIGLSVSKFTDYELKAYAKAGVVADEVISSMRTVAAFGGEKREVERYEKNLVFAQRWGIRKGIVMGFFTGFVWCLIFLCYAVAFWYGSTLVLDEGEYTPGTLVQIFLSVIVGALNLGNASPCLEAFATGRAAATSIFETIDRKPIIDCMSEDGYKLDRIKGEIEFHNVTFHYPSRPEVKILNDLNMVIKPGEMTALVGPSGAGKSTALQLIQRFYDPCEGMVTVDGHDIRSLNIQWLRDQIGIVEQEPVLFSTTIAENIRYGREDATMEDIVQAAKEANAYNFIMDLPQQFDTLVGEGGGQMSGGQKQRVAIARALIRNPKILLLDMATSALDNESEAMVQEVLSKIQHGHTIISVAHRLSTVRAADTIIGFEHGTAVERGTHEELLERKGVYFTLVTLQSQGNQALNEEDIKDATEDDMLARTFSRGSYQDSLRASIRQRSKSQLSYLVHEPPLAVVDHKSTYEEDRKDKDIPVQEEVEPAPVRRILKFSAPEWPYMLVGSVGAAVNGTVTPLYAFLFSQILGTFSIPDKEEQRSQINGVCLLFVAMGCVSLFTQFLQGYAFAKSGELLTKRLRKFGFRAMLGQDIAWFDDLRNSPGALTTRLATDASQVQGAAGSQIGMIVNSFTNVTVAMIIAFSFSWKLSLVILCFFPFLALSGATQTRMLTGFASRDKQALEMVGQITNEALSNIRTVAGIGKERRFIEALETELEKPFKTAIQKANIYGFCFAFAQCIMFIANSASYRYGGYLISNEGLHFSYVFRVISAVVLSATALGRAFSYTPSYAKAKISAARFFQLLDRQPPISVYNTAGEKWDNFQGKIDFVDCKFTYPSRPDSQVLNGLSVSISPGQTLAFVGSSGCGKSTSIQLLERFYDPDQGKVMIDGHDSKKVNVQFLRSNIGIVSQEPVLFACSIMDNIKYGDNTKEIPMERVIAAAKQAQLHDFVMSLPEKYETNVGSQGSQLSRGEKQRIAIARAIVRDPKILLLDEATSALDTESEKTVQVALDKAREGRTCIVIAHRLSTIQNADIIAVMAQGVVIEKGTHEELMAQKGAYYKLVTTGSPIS

Row | SMILES | expression level of wild-type BSEP [1] | efflux of [^3H] TC from the base side to the apical side (in words) [2]
1 | CCCCCCCC(=O)O [octanoic acid] | an increase in the expression level was observed | 
2 | CCCCCCCCCC(=O)O [decanoic acid] |  | increased
3 | CCCC(=O)O [butanoic acid] |  | increased
4 | CCC(=O)O [propionic acid] |  | increased

Reference: patent publication US20130197085A1, “AGENT AND METHOD FOR STABILIZING MEMBRANE PROTEIN” (priority 2007, published 2013)
